Measured values reported in patent US9770481B2, “Inhibitors of NOX1” (UNIVERSITY OF PITTSBURGH—OF THE COMMONWEALTH SYSTEM OF …, priority 2011, dated 2017).
“Also recorded” adds a separate entry of the source.

Tests used:
Nox4 = target: T1, Nox4 (Homo sapiens, UniProt Q9NPH5); experiment: H2O2 production by COS cells transfected with Nox4 oxidase (Amplex red); assay type: cell-based; conditions: 100 nM to 10,000 nM
T1 construct: expressed in transfected cells; host or cells: COS22 / COS cells, transient transfection
T1 sequence (Q9NPH5 1-578): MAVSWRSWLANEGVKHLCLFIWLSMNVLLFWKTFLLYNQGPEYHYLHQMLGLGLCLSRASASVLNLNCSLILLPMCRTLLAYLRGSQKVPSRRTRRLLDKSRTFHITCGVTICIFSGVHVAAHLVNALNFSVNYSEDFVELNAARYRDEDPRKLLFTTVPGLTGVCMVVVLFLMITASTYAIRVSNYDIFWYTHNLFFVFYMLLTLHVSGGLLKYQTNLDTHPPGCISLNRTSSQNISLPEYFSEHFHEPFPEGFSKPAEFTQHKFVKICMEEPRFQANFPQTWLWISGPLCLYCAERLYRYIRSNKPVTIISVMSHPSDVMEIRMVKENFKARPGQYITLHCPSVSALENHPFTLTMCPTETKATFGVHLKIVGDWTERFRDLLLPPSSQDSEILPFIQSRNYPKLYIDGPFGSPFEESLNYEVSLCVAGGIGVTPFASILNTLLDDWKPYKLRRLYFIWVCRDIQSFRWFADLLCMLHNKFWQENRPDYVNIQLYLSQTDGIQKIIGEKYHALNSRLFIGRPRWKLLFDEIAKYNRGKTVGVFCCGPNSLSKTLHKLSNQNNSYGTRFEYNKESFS
T1 sequence (P13498 1-195 partner): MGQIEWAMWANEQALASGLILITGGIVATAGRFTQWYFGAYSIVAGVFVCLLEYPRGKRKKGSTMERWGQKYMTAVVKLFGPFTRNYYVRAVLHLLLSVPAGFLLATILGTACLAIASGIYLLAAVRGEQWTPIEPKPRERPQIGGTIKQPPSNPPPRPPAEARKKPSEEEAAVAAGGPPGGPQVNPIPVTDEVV
Description: (§1) To test whether the inhibitory effect of NoxA1ds is specific to Nox1, the effect of NoxA1ds was tested on cells expressing Nox2, Nox4, and Nox5 as well as on purified xanthine oxidase enzyme. To test the effect on Nox2, production of O2^− was measured by the reduction of cytochrome c by cell lysates from COS cells transiently transfected with the Nox2 oxidase, stimulated with LiDS, and the treated with increasing concentrations of NoxA1ds (from 0.1 nM to 10,000 nM). Similarly, production of H2O2 was measured by Amplex red fluorescence by COS cells transiently transfected with the Nox4 oxidase and treated with increasing concentrations of NoxA1ds (from 100 nM to 10,000 nM). Production of O2^− was also measured by the reduction of cytochrome c by cell lysates from HEK293 cells stably transfected with the Nox5 oxidase stimulated with Ca^2+, and treated with increasing concentrations of NoxA1ds (from 0.1 nM to 10,000 nM). Finally, production of O2^− was measured by Electron Paramagnetic Resonance from pure xanthine oxidase enzyme preparations, stimulated with hypoxanthine and treated with increasing concentrations of NoxA1ds (from 0.1 nM to 10,000 nM).

xanthine oxidase = experiment: O2- production by pure xanthine oxidase stimulated with hypoxanthine (EPR); assay type: biochemical; conditions: 0.1 nM to 10,000 nM
Description: as §1

Nox1-YFP = experiment: Image cross correlation spectroscopy (ICCS) of R-NoxA1ds and Nox1-YFP; assay type: binding; conditions: unlabelled competitor
Description: An ELISA of Nox1:NoxA1ds interaction was performed as follows. Neutravidin coated plates were incubated with biotin-tagged NoxA1ds (Biotin-NoxA1ds) or biotin-tagged SCRMB (Biotin-SCRMB) before addition of cell membranes prepared from cells transfected with Nox1 (Nox1 membrane) or transfected with an empty vector (COS22 membrane). Bound Nox1 was detected through a FITC conjugated secondary antibody (αRabbit Ab Sigma F9887) bound to the Nox1 primary antibody (rabbit αNox1 Ab (SC-25545, Santa Cruz Biotechnology)). FITC fluorescence was expressed as binding as % COS22 membranes on each experimental day. […] To further confirm the association, image cross correlation spectroscopy (ICCS) was used to determine patterns in signal fluctuation between rhodamine-labeled NoxA1ds (R-NoxA1ds) and Nox1-YFP though a sequence of 100 images 0.05 s apart. Correlation and cross-correlation was calculated using an ImageJ plugin.

[1] = system: rat aortic smooth muscle cells; experiment: O2- production by rat aortic smooth muscle cells under static conditions or cyclic stretch; assay type: cell-based
Description: FIG. 8. NoxA1ds attenuates stretch-induced O2^− production: Effect of NoxA1ds on O2^− production by rat aortic smooth muscle cells subjected to static conditions or cyclic stretch (10%, 1 Hz, 24 hrs). NoxA1ds was added 4 hrs before measuring O2^− production.
Cyclic stretching of vascular cells occurs as a result of the pulsatile nature of blood flow but is increased in hypertensive states, and has been associated with generation of ROS and possibly cell proliferation. […] At the end of 24 hrs, cells were lysed and membrane fraction O2^− production was measured using cytochrome c.

[2] = system: rat aortic smooth muscle cells; experiment: Calponin and osteopontin expression in stretched rat aortic smooth muscle cells (Western blot); assay type: cell-based; conditions: 10 μM added every four hours; cyclic stretch 24 hrs
Description: The effect of Nox1 inhibition on the expression of certain protein markers of rat aortic smooth muscle cell contractile vs. synthetic phenotypes was evaluated. Cells were subjected to 24 hrs of cyclic stretch (10%, 1 Hz) with 10 μM NoxA1ds or SCRMB control being added every four hours. […] Calponin expression during stretch was rescued by the addition of 10 μM NoxA1ds, yet was unaffected by the addition of 10 μM scrambled peptide (SCRMB). A representative Western blot is shown below the graph (FIG. 9B). Osteopontin (OPN, a marker of the […] phenotype), expression increased after 24 hrs of stretch.

[3] = system: rat aortic smooth muscle cells; experiment: Stretch-induced migration of rat aortic smooth muscle cells (wound closure); assay type: cell-based; conditions: 10 μM added every four hours; cyclic stretch 24 hrs
Description: The effect on NoxA1ds on stretch-induced migration of rat aortic smooth muscle cells was studied. Cell monolayer cultures with an introduced gap (“wound”) were subjected to 24 hrs of cyclic stretch (10%, 1 Hz) with 10 μM NoxA1ds or SCRMB control being added every four hours. Cell migration may be assessed as the distance the wound has closed, where greater […] corresponds to greater migration. Cell migration increased as a result of cyclic stretch.

[4] = system: HT-29 colon adenocarcinoma cells; experiment: O2- production by HT-29 cells (SOD inhibitable reduction of cytochrome c); assay type: cell-based; conditions: increasing doses

In the case of “H-EPVDALGKAKV-NH2 [NoxA1ds, [NH3^+]-EPVDALGKAKV-[CONH2]]”, the “Inhibitory effect on Nox4 H2O2 production” value (Nox4) is reported as “did not exhibit a significant inhibitory effect”, the “Inhibitory effect on xanthine oxidase O2- production” value (xanthine oxidase) is reported as “did not exhibit a significant inhibitory effect” and the “Effect of competition with R-NoxA1ds on fractional binding” value (Nox1-YFP) is reported as “significantly reduced the fractional binding”. For the same substance, the “Cyclic stretch-induced O2- production” value ([1]; cyclic stretch 10%, 1 Hz, 24 hrs, peptide added at t=20 hrs (4 hrs before measuring)) was “completely abrogated; also recorded: inhibited”, the “O2- production under static conditions” value ([1]; static, 10 μM) was “negligible effect” and the “Calponin expression during stretch” value [2] was “rescued”. For the same substance, the “Osteopontin (OPN) expression during stretch” value [2] was “returned to levels observed in the absence of stretch”, the “Stretch-induced cell migration (wound closure)” value [3] was “reduced migration to levels observed in non-stretched cells” and the “Inhibition of O2- production by HT-29 cells” value [4] was “dose-dependent inhibition”.
